Publication PMC4893612 (Scientific Reports, 2016)

Columns and labels:
USP14 [1] = biological target: T1, USP14 (Homo sapiens, UniProt P54578); test: Ub-VS labeling of lysates of exposed OPM-2 cells, USP14; type: cell-based; set-up: endogenous in cells; host or cells: OPM-2 multiple myeloma cells; details: 0.5 μM, 3 hours
Method: Cell extract proteins were resolved by Tris-Acetate PAGE gels (Invitrogen, Carlsbad, CA) and transferred onto a polyvinylidene difluoride (PVDF) membrane for western blotting. For Ub-VS labeling, we lysed cell pellets from control or treated cells with buffer (50 mM HEPES pH 7.4, 250 mM sucrose, 10 mM MgCl2, 2 mM ATP, 1 mM DTT and 1%NP-40) on ice for 30 min and removed debris by centrifugation. We labeled 25 μg of protein with 1 μM Ub-VS for 30 min at 37 °C. We resolved samples by SDS-PAGE and performed immunoblotting. For HA-Ub-VS labeling, we pretreated purified 19S (5 nM) with DMSO or 2.5, 5, 10, 15 or 25μM 1570 for 10 min at room temperature, which followed with labeling with 1 μM HA-Ub-VS for 30 min at 37 °C and immunoblotting.

USP14 [2] = biological target: T1, USP14; test: Cellular thermal shift assay (CETSA) in OPM-2 cells; type: cell-based; set-up: endogenous in cells; host or cells: OPM-2 multiple myeloma cells; details: 1 μM, 1 hour
Method: For CETSA, the same amount of cells as one sample was treated with required condition and collected as described. Each sample was suspended in PBS supplemented with protease inhibitors after they were washed in PBS. And then these samples were heated at 51, 53, or 55 °C for 3 min. Immediately after heating, tubes were removed and incubated at room temperature for 3 min, and then snap-frozen in liquid nitrogen. Samples were freeze-thawed twice and centrifuged at 20,000 g for 20 min at +4 °C and supernatants were analysed by Western-blotting.

UCHL5 = biological target: T2, UCHL5 (Homo sapiens, UniProt Q9Y5K5); test: SPR binding to recombinant UCHL5, NTA chip; details: protein from ProSpec, read-out: UCHL5(P) KD
T2 sequence (Q9Y5K5 1-329): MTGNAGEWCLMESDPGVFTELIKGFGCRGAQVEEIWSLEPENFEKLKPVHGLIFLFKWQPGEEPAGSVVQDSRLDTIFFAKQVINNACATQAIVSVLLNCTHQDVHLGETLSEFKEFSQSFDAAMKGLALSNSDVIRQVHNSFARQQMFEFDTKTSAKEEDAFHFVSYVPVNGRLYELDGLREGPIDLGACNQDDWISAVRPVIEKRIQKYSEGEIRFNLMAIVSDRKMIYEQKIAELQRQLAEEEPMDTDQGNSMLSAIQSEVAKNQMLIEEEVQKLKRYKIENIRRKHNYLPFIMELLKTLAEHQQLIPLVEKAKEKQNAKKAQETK
Excerpt: A BIACORE T200 was used for characterization of the interaction between compounds and USP14, UCHL5 and 26S proteasome. The standard BIACORE protocols were used for NTA chip (Ni/His-tag immobilization) and CM7 chip for compound interaction studies with slight modification described below. The x6 his-tagged USP14 and UCHL5 proteins were coupled to a Series S NTA BIACORE sensor chip in the BIACORE T200 using the his-tags for adherence of the proteins to the surface and an amine coupling procedure for covalent attachment to the chip surface. NTA chip was cleaned using three 500 μM EDTA injections followed by an injection of 500 μM Ni^2+ and activation of the chip surface with EDC/NHS injection according to BIACORE standard methods. Each chip has four separate areas, which were handled separately during the immobilization procedure. Area 1 was used as blank reference surface, area 2–4 was coupled with investigated recombinant proteins or complexes. Proteins were diluted in running buffer (10 mM HEPES, 150 mM NaCl, 0,005% Tween 20) to typically 10 μg/ml before injection(1 mL) over the prepared surfaces. […] The immobilization procedure was followed by injections of compound concentration series of VLX1570. […] Rmax and KD were calculated using Langmuir binding isotherms as provided in the Biacore software.

RPMI8226 tumors = test: Subcutaneous RPMI8226 multiple myeloma model in mice; type: in vivo
Method: Tissue sections were deparaffinized with xylene, rehydrated and microwaved and then incubated with primary antibodies diluted in 1% (wt/vol) BSA and visualized by standard avidin–biotin–peroxidase complex technique (Vector Laboratories, Burlingame, CA, USA). Counterstaining was performed with Mayer’s haematoxylin. Slides were mounted in Vectashield containing DAPI and images recorded in a Zeiss Axioplan 2 fluorescence microscope. Antibodies: KI67 Dako #M7240 (1:100)(using Rodent Block (Biocare-RBM961) and Envision Plus anti-mouse labeled polymer (Dako K4001); Ub-K48 (Millipore-05-1307) (1:100) (serum free Protein block (Dako-X0909)) and Envision + anti-rabbit labeled polymer (Dako-K4003); CXCR4 (Sigma-C3116) (1:400) (Dako-X0909) and Envision + anti-rabbit labeled polymer (Dako-K4003); cleaved casapse-3 (Cell Signaling-9664) (1:100) (Dako-X0909) and Envision + anti-rabbit labeled polymer (Dako-K4003).
Two different multiple myeloma models were used. Experimental protocols and methods were performed by Accelera (Nerviano, Italy) in accordance with guidelines and with permission from the local ethics committee (Nerviano Medical Sciences (NMS) Ethic Committee). All experimental protocols were approved by the Nerviano Medical Sciences (NMS) Ethic Committee. Study director was Marina Ciomei. SCID female mice were obtained from Charles River, Italy. Body weights at the day of tumor implant were between 19 and 22 grams. Treatment started at day 7 after injection of tumor cells and continued for 10 consequtive days. Mice were monitored daily for mortality and clinical signs. In the KMS-11 model, antitumor efficacy was evaluated in terms of survival increase respect to control. In the RPMI8226 model, the growth of subcutaneous tumors was recorded. For imaging, mice were injected intraperitoneally with 150 mg/kg d-luciferin (Promega) followed by anesthetization in 2–3% isoflurane atmosphere. After 10–12 minutes of biodistribution time, mice were imaged using a charge coupled device (CCD camera, Xenogen IVIS Lumina System) to evaluate the bioluminescence in the animal. Nose-cone isoflurane delivery system and heated stage for maintaining body temperature were used. A gray-scale image of the mice was captured, followed by an overlay of a bioluminescence map representing the spatial distribution of photons detected from cleaved luciferin in the cancer cells expressing luciferase. Signal intensity was quantified using a customized version of the IGOR Pro version 4.09A Software (WaveMetrics, Inc., Lake Oswego, OR) called Living Image version 3.00 (Xenogen). Photon emission was measured as whole-body radiance and the individual regions of interest (ROIs) were manually selected. Data were expressed as photon/second/cm^2/steradian.

T1 sequence (P54578 whole entry): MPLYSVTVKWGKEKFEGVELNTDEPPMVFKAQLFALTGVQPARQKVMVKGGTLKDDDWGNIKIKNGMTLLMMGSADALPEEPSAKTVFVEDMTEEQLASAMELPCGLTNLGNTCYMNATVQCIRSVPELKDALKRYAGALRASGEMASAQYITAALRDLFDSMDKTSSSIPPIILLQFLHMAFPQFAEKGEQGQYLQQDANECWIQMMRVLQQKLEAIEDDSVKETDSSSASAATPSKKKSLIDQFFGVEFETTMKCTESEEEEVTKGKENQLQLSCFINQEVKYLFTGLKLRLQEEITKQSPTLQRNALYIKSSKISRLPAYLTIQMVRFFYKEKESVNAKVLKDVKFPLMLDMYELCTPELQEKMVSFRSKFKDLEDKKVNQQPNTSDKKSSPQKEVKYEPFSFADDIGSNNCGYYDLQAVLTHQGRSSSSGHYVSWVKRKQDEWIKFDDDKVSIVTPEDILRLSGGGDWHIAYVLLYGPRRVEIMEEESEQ

For `C=CC(=O)N1CC/C(=C\c2ccc(F)c([N+](=O)[O-])c2)C(=O)/C(=C/c2ccc(F)c([N+](=O)[O-])c2)C1` [VLX1570], the “inhibition of USP14 activity in exposed cells” value (USP14 [1]) was “Inhibition of USP14 activity could be demonstrated”, the “thermostabilization of USP14” value (USP14 [2]) was “thermostabilized” and the “thermostabilization of USP14” value (USP14 [2]; 53°–55 °C) was 2.5 fold control. The Kd (UCHL5) was 14 µM, the tumor growth (RPMI8226 tumors; 3 mg/kg, 10 consecutive days, subcutaneous RPMI8226) was “significant decrease in tumor growth” and the “CXCR4 staining in tumors (immunohistochemistry)” value (RPMI8226 tumors; RPMI8226 tumors, 3 mg/kg) was “decreased CXCR4 staining”. The “K48-linked ubiquitin chains in tumors” value (RPMI8226 tumors; RPMI8226 tumors, 3 mg/kg) was “increases in K48-linked ubiquitin chains”, the “active caspase-3 in tumors” value (RPMI8226 tumors; RPMI8226 tumors, 3 mg/kg) was “increased active caspase-3” and the “ERK phosphorylation in RPMI8226 cells in vivo” value (RPMI8226 tumors; after exposure of mice) was “decreased ERK phosphorylation”.
